Assay [1] in a line: Inhibition of p21WAF1 peptide recruitment to CDK 2/cyclin-A complex.
Assay [2] in a line: Inhibition of competitive binding to cyclin-A kinase complex.
Assay [3] deals with Cyclin-dependent kinase 2/cyclin A (Homo sapiens, UniProt P24941). Kind of assay: In vitro inhibition of CDK2-cyclin A kinase activity on retinoblastoma protein. In kind it is protein-complex assay.

The structures appear in SMILES notation. pIC50: −log10 of the molar value. Starred links: 1 amine or outer side, 2 acyl side, 3 side chain; linkers in the order of their positions; H or OH if unused. Non-standard residues stand in square brackets, D forms with d. Residues, ends and D or L forms follow the SMILES beside them. X3 = CC(=O)O[C@@H](c1ccccc1)[C@@H](N[*:1])C(=O)[*:2]; X1 = CC(=O)O[C@H](c1ccccc1)[C@H](N[*:1])C(=O)[*:2]; X2 = O=C(/C(=C/c1ccccc1)N[*:1])[*:2]; Phe(ol) = N[C@H](CO)Cc1ccccc1

For `CC[C@H](C)[C@H](NC(=O)[C@H](CC(C)C)NC(=O)[C@H](CCCN=C(N)N)NC(=O)[C@H](CCCN=C(N)N)NC(=O)[C@H](CCCCN)NC(=O)[C@H](CO)NC(=O)[C@@H](N)Cc1c[nH]cn1)C(=O)N[C@@H](C(=O)O)[C@@H](OC(C)=O)c1ccccc1` (H-HSKRRLI[X3]-OH), the pIC50 in assay [1] was 6.22; in assay [2], 5.74.
`CC[C@H](C)[C@H](NC(=O)[C@H](CC(C)C)NC(=O)[C@H](CCCN=C(N)N)NC(=O)[C@H](CCCN=C(N)N)NC(=O)[C@H](CCCCN)NC(=O)[C@H](C)NC(=O)[C@@H](N)Cc1c[nH]cn1)C(=O)N[C@H](C(=O)O)[C@H](OC(C)=O)c1ccccc1` (H-HAKRRLI[X1]-OH): the pIC50 was 6.62 in assay [1], 6.49 in assay [3] and 6.64 in assay [2].
As for `CC[C@H](C)[C@H](NC(=O)[C@H](CC(C)C)NC(=O)[C@H](CCCN=C(N)N)NC(=O)[C@H](CCCN=C(N)N)NC(=O)[C@H](CCCCN)NC(=O)[C@H](C)NC(=O)[C@@H](N)Cc1c[nH]cn1)C(=O)N/C(=C\c1ccccc1)C(=O)O` (H-HAKRRLI[X2]-OH), the pIC50 in assay [1] was 7.27; in assay [3], 7.15; in assay [2] it was 7.22.
With `CC[C@H](C)[C@H](NC(=O)[C@H](CC(C)C)NC(=O)[C@H](CCCN=C(N)N)NC(=O)[C@H](CCCN=C(N)N)NC(=O)[C@H](CCCCN)NC(=O)[C@H](CO)NC(=O)[C@@H](N)Cc1c[nH]cn1)C(=O)N[C@H](C(=O)O)[C@H](OC(C)=O)c1ccccc1` (H-HSKRRLI[X1]-OH), the figures for the pIC50 in assay [1] and in assay [2] were 6.10 and 5.88, respectively.
`CC[C@H](C)[C@H](NC(=O)[C@H](CC(C)C)NC(=O)[C@H](CCCN=C(N)N)NC(=O)[C@H](CCCN=C(N)N)NC(=O)[C@H](CCCCN)NC(=O)[C@H](C)NC(=O)[C@@H](N)Cc1c[nH]cn1)C(=O)N[C@@H](C(=O)O)[C@@H](O)c1ccccc1`: the figures for the pIC50 in assay [1] and in assay [2] were 6.96 and 6.92, respectively.
On to `CC[C@H](C)[C@H](NC(=O)[C@H](CC(C)C)NC(=O)[C@H](CCCN=C(N)N)NC(=O)[C@H](CCCN=C(N)N)NC(=O)[C@H](CCCCN)NC(=O)[C@H](CO)NC(=O)[C@@H](N)Cc1c[nH]cn1)C(=O)N[C@@H](Cc1ccccc1)C(N)=O`, for which the pIC50 is 5.47 in assay [3] and 5.37 in assay [2].
Turning to `CC[C@H](C)[C@H](NC(=O)[C@H](CC(C)C)NC(=O)[C@H](CCCN=C(N)N)NC(=O)[C@H](CCCN=C(N)N)NC(=O)[C@H](CCCCN)NC(=O)[C@H](C)NC(=O)[C@@H](N)Cc1c[nH]cn1)C(=O)N[C@H](CO)Cc1ccccc1` (H-HAKRRLI[Phe(ol)]), the results for the pIC50 in assay [1] and in assay [2] were 7.74 and 7.66, respectively.
For the compound `CC[C@H](C)[C@H](NC(=O)[C@H](CC(C)C)NC(=O)[C@H](CCCN=C(N)N)NC(=O)[C@H](CCCN=C(N)N)NC(=O)[C@H](CCCCN)NC(=O)[C@H](CO)NC(=O)[C@@H](N)Cc1c[nH]cn1)C(=O)N[C@H](C(=O)O)[C@H](O)c1ccccc1`, the pIC50 was 6.72 in assay [1], 6.25 in assay [3] and 6.60 in assay [2].
For `CC[C@H](C)[C@H](NC(=O)[C@H](CC(C)C)NC(=O)[C@H](CCCN=C(N)N)NC(=O)[C@H](CCCN=C(N)N)NC(=O)[C@H](CCCCN)NC(=O)[C@H](CO)NC(=O)[C@@H](N)Cc1c[nH]cn1)C(=O)N[C@@H](C(=O)O)[C@@H](O)c1ccccc1` the same measures were 6.15, 5.92 and 6.12.
The like results for `CC[C@H](C)[C@H](NC(=O)[C@H](CC(C)C)NC(=O)[C@H](CCCN=C(N)N)NC(=O)[C@H](CCCN=C(N)N)NC(=O)[C@H](CCCCN)NC(=O)[C@H](CO)NC(=O)[C@@H](N)Cc1c[nH]cn1)C(=O)N/C(=C\c1ccccc1)C(=O)O` (H-HSKRRLI[X2]-OH) were, in that order, 6.66, 5.89 and 6.70.
For `CC[C@H](C)[C@H](NC(=O)[C@H](CC(C)C)NC(=O)[C@H](CCCN=C(N)N)NC(=O)[C@H](CCCN=C(N)N)NC(=O)[C@H](CCCCN)NC(=O)[C@H](C)NC(=O)[C@@H](N)Cc1c[nH]cn1)C(=O)N[C@@H](C(=O)O)[C@@H](OC(C)=O)c1ccccc1` (H-HAKRRLI[X3]-OH), the results for the pIC50 in assay [1] and in assay [2] were 6.80 and 6.72, respectively.
In the case of `CC[C@H](C)[C@H](NC(=O)[C@H](CC(C)C)NC(=O)[C@H](CCCNC(=N)N)NC(=O)[C@H](CCCNC(=N)N)NC(=O)[C@H](CCCCN)NC(=O)[C@H](C)NC(=O)[C@@H](N)Cc1cnc[nH]1)C(=O)N[C@@H](C(=O)O)[C@@H](OC(C)=O)c1ccccc1`, the pIC50 in assay [3] was 6.70.
As to `CC[C@H](C)[C@H](NC(=O)[C@H](CC(C)C)NC(=O)[C@H](CCCN=C(N)N)NC(=O)[C@H](CCCN=C(N)N)NC(=O)[C@H](CCCCN)NC(=O)[C@H](CO)NC(=O)[C@@H](N)Cc1c[nH]cn1)C(=O)N[C@H](CO)Cc1ccccc1`, the pIC50 was 6.51 in assay [1] and 6.37 in assay [3].
In the case of `CC[C@H](C)[C@H](NC(=O)[C@H](CC(C)C)NC(=O)[C@H](CCCN=C(N)N)NC(=O)[C@H](CCCN=C(N)N)NC(=O)[C@H](CCCCN)NC(=O)[C@H](C)NC(=O)[C@@H](N)Cc1c[nH]cn1)C(=O)N[C@H](C(=O)O)[C@H](O)c1ccccc1`, the results for the pIC50 in assay [1] and in assay [2] were 7.55 and 7.13, respectively.

For orientation: pIC50 means the negative decadic logarithm of the IC50, by convention in mol/L.
